Test results from patent US4539319A (priority 1982, dated 1985).
Several values for one entry are separate records, joined by “and”; a condition that tells them apart may be missing. Identical values can stand only once. Counter-ions that a name gives are not always drawn. Like-named read-outs stand apart in the source and are kept apart here.

What was measured:
ST from E coli P16 = test system: ST from E coli P16; design: species or system mice; details: mouse, in vivo
ST from E coli P155 = test system: ST from E coli P155; design: species or system mice; details: mouse, in vivo
ST from E coli 431 = test system: ST from E coli 431; design: species or system mice; details: mouse, in vivo
8 Bromo cyclic GMP = test system: 8 Bromo cyclic GMP; design: species or system mice; details: mouse, in vivo
[1] = test system: enterotoxin induced secretion; test: animal or person; type: in vivo, mice; details: Mus musculus, po
[2] = Determination of Therapeutic Ratios: LD50 in suckling 8 day old mice; details: mouse, in vivo
Experimental: LD50 determinations were made by dosing groups of suckling 8 day old mice with appropriate concentrations orally. Deaths were noted over a 7 day period and LD50s calculated using a probit regression program. ED50 determinations were carried out by dosing groups of 6-8 day old mice with appropriate concentrations orally. The percentage fluid inhibition was determined as above and ED50s calculated using a log/linear regression analysis and the formula given in the British Pharmacopoeia.
For computation of T.R.'s the standard errors of ED50 values were corrected to normalise the errors and the T.R.'s expressed as the ratio (LD50 /ED50) and standard deviation range (Table 3).

E coli B44 = test: Protection of Neonatal Mice from Lethal Enteropathogenic E coli Infection; type: in vivo, E coli B44 infection in 4 day old mice; details: 10 mg/kg b.i.d.; for % mortality in mice dosed with compound: n = 60; for % Reduction in mortality: versus placebo
Experimental: 4 day old mice were orally dosed with 50 μl of phosphate buffered saline containing 1×10^5 organisms/ml of E coli B44. The mice were then dosed b.i.d. with either placebo or drug for four days commencing 16 hours after infection. The animals were left with their mothers throughout the experiment and a daily record of deaths was made. The experiment was terminated when no mortality was seen over a 24 hour period. (Usually 7-10 days after infection). The mortality in the drug group was then compared with the mortality in the placebo group using the following formula:
% Reduction in mortality=[(MP -MD)/MP]× 100
MP =mortality in group having placebo
MD =mortality in group receiving drug
Statistical analysis was performed using 2×2 contingency tables (single tailed `p`).

[3] = test system: enterotoxin (culture filtrate) from enteropathogenic E coli strain P16; design: species or system piglets; details: in vivo; hydrochloride

CCCCN(CCCC)C(=N)c1ccc(OC)c2c1CCCC2 [Example 11, N',N'-Di-n-butyl-4-methoxy-5,6,7,8-tetrahydro-1-naphthamidine, hydrochloride]
% inhibition (Table 2) (ST from E coli P16): 59%
% inhibition (ST from E coli P16; hydrochloride): 59% and 32%
% inhibition (ST from E coli P155): 31%
% inhibition (ST from E coli 431): 47%
% inhibition (8 Bromo cyclic GMP): 42%
ED50 [1]: 16 mg/kg
selectivity ratio ([2]; po, therapeutic ratio (T.R.), standard errors of ED50 corrected, range (3.9-8.1)): 5.6
LD50 at 168 h ([2]; oral, 8 day old mice, deaths over 7 days, range (83-91)): 87 mg/kg
% mortality in mice dosed with compound (E coli B44; day 2 post infection, control 31): 25%
% Reduction in mortality (E coli B44; day 2 post infection): 18%
% mortality in mice dosed with compound (E coli B44; day 3 post infection, control 68, *P < 0.05): 47%
% Reduction in mortality (E coli B44; day 3 post infection): 31%
% mortality in mice dosed with compound (E coli B44; day 4 post infection, control 79, **P < 0.01): 53%
% Reduction in mortality (E coli B44; day 4 post infection): 33%
% mortality in mice dosed with compound (E coli B44; day 5 post infection, control 84, ***P < 0.001): 57%
% Reduction in mortality (E coli B44; day 5 post infection): 32%
% mortality in mice dosed with compound (E coli B44; day 6 post infection, control 84, **P < 0.01): 58%
% Reduction in mortality (E coli B44; day 6 post infection): 30%
% mortality in mice dosed with compound (E coli B44; day 7 post infection, control 84, **P < 0.01): 58%
% Reduction in mortality (E coli B44; day 7 post infection): 30%
Mean scour score during 7 hr observation period ± SEM [3]: 2.1 ± 0.3 and 1.2 ± 0.2

4-Methoxy-N,N-di-amylamine-5,6,7,8-tetrahydro-1-naphthamidine, hydrochloride [Example 13]
% inhibition (ST from E coli P16; hydrochloride): 38% and 33%

CCCCN(CCCC)C(=N)c1ccc(OC(C)C)c2c1CCCC2 [Example 14, N',N'-di-n-butyl-4-isopropyloxy-5,6,7,8-tetrahydro-1-naphthamidine, hydrochloride]
% inhibition (ST from E coli P16): 52%

CCCCN(CCCC)C(=N)c1ccc(OCc2ccccc2)c2c1CCCC2 [Example 12, N',N'-Di-n-butyl-4-benzyloxy-5,6,7,8-tetrahydro-1-naphthamidine, hydrochloride]
% inhibition (ST from E coli P16; hydrochloride): 70% and 52%

COc1ccc(C(=N)N2CCCCC2)c2c1CCCC2.Cl [Example 10, 1-[Imino(4-methoxy-5,6,7,8-tetrahydro-1-naphthyl)-methyl]piperidine, hydrochloride]
% inhibition (ST from E coli P16; hydrochloride): 33% and 35%

CCCCN(CCCC)C(=N)c1ccc(O)c2c1CCCC2 [Example 16, N',N'-di-n-butyl-4-hydroxy-5,6,7,8-tetrahydro-1-naphthamidine hydrochloride]
% inhibition (ST from E coli P16; hydrochloride): 58% and 41%

CCCN(CCC)C(=N)c1ccc(OC)c2c1CCCC2 [Example 9, 4-methoxy-N',N'-di-n-propyl-5,6,7,8-tetrahydro-1-naphthamidine, hydrochloride]
% inhibition (ST from E coli P16; hydrochloride): 43% and 29%

CN(C)C(=N)c1ccc(OCc2ccccc2)c2c1CCCC2 [Example 15, 4-Benzyloxy-N',N'-dimethyl-5,6,7,8-tetrahydro-1-naphthamidine, hydrochloride]
% inhibition (ST from E coli P16; hydrochloride): 39% and 22%
